{
  "source": "ChEMBL document CHEMBL5335804",
  "about": "“Design, synthesis and biological evaluation of 2-phenylaminopyrimidine derivatives as EGFR inhibitors” (Bioorg Med Chem Lett, 2024)",
  "key": {"[1]": {"test_system": "BaF3", "experiment": "cells", "settings": "Mus musculus"}, "[2]": {"experiment": "Cytotoxicity against human NCI-H838 cells harboring wild type EGFR at 500 nM", "format": "toxicity, cell-based", "settings": "read-out: INH"}, "[3]": {"test_system": "Epidermal growth factor receptor (Homo sapiens), P00533 [L858R,T790M,C797S]", "sequence (P00533 whole entry T790M/C797S/L858R)": "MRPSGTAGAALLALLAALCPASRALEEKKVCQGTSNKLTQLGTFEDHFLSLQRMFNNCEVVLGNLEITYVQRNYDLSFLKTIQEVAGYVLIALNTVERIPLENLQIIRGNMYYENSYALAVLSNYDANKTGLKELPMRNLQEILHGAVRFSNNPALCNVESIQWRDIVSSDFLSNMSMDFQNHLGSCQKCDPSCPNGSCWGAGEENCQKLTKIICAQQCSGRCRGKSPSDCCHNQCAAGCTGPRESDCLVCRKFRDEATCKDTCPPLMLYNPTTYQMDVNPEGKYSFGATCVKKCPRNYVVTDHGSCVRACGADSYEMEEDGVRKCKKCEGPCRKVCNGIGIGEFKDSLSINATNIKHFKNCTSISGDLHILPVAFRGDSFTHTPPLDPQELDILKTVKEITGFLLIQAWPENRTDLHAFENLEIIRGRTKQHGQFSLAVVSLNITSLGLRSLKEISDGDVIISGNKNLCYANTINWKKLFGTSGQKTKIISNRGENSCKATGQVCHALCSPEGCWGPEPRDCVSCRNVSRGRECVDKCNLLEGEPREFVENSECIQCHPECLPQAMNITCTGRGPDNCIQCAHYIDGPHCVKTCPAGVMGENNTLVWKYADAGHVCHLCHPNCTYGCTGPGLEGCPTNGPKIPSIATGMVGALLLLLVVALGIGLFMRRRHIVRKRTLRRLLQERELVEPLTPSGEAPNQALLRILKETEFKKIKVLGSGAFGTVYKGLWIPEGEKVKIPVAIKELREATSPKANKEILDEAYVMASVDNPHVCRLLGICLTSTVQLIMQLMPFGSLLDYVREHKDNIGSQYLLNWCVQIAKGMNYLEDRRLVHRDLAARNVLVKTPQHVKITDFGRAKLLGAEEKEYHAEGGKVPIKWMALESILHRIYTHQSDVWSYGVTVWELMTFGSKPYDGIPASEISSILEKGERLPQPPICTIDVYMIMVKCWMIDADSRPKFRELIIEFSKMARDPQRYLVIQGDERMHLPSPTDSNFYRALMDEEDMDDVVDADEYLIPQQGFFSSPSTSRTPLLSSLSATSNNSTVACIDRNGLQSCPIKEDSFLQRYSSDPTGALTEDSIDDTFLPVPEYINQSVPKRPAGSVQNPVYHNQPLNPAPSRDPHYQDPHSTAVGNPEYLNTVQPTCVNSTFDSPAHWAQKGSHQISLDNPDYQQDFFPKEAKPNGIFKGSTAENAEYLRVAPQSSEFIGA", "settings": "dose 500.0 nM"}},
  "data": [
    {"molecule": "COc1cc(N2CCC(N3CCN(C)CC3)CC2)c(C)cc1Nc1nccc(-n2cc(CNC(C)CO)c(-c3ccccc3)n2)n1", "note": "(stereo not drawn)", "values": [
      {"measurement": "IC50", "setting": "[1]", "value": 143, "unit": "nM"},
      {"measurement": "cytotoxicity at 0.5 µM", "setting": "[2]", "value": 25.6, "unit": "%"}
    ]},
    {"molecule": "COc1cc(N2CCC(N3CCN(C)CC3)CC2)c(C)cc1Nc1nccc(-n2cc(CNC(CO)C(C)C)c(-c3ccccc3)n2)n1", "note": "(stereo not drawn)", "values": [
      {"measurement": "IC50", "setting": "[1]", "value": 292, "unit": "nM"},
      {"measurement": "cytotoxicity at 0.5 µM", "setting": "[2]", "value": 31.8, "unit": "%"}
    ]},
    {"molecule": "COc1cc(N2CCC(N3CCN(C)CC3)CC2)c(C)cc1Nc1nccc(-n2cc(CN[C@H](C)CO)c(-c3ccccc3)n2)n1", "values": [
      {"measurement": "IC50", "setting": "[1]", "value": 260, "unit": "nM"},
      {"measurement": "cytotoxicity at 0.5 µM", "setting": "[2]", "value": 17.1, "unit": "%"}
    ]},
    {"molecule": "COc1cc(N2CCC(N3CCN(C)CC3)CC2)ccc1Nc1ncc(Cl)c(Nc2ccccc2P(C)(C)=O)n1", "note": "[BRIGATINIB]", "values": [
      {"measurement": "inhibition", "setting": "[3]", "value": 84.6, "unit": "%"},
      {"measurement": "IC50", "setting": "[1]", "value": 542, "unit": "nM"},
      {"measurement": "cytotoxicity at 0.5 µM", "setting": "[2]", "value": 92.4, "unit": "%"}
    ]},
    {"molecule": "COc1cc(N2CCC(N3CCN(C)CC3)CC2)c(C)cc1Nc1nccc(-n2cc(CNCCO)c(-c3ccccc3)n2)n1", "values": [
      {"measurement": "IC50", "setting": "[1]", "value": 485, "unit": "nM"},
      {"measurement": "cytotoxicity at 0.5 µM", "setting": "[2]", "value": 33.2, "unit": "%"}
    ]},
    {"molecule": "COc1cc(N2CCC(N3CCN(C)CC3)CC2)c(C)cc1Nc1nccc(-n2cc(CN[C@@H](C)CO)c(-c3ccccc3)n2)n1", "values": [
      {"measurement": "IC50", "setting": "[1]", "value": 106, "unit": "nM"},
      {"measurement": "cytotoxicity at 0.5 µM", "setting": "[2]", "value": 14.9, "unit": "%"}
    ]}
  ]
}
